Experiments:
Recombinant human FAP = target: T1, Recombinant human FAP (Homo sapiens, UniProt Q12884); assay: FAP FRET assay, FGF21-sequence FRET peptide substrate; format: biochemical; conditions: FRET peptide with human FGF21 sequence, 6 μM, 37° C.
T1 construct: purchased R&D systems
T1 sequence (Q12884 1-760): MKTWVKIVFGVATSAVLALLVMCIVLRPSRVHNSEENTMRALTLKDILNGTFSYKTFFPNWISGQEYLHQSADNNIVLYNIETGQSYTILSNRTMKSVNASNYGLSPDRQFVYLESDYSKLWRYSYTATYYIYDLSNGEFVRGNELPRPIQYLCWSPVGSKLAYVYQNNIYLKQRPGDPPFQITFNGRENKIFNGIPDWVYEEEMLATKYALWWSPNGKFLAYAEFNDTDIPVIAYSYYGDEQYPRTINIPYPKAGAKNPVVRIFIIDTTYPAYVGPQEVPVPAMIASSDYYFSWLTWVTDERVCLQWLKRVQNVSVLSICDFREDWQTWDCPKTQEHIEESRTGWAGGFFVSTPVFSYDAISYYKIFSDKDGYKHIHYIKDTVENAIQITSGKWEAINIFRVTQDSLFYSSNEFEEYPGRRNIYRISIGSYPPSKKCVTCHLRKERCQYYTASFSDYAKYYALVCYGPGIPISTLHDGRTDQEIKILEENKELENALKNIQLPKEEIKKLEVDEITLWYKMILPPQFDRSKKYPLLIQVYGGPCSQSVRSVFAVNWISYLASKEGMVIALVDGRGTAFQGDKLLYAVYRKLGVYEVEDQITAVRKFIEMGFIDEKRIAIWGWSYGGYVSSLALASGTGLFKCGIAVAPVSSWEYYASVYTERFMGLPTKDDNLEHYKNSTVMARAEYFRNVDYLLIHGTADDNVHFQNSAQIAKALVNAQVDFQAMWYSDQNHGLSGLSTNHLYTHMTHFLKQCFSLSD
Method: The compounds according to the present technology were evaluated in terms of the inhibitory effect on the activity of dipeptidyl peptidases including FAP by using a substrate producing fluorescent substances upon enzymatic decomposition. The test was conducted at 25° C. to get a final reaction volume of 100 μL in a 96 black well plate. […] Briefly, the test compounds were dissolved in dimethyl sulfoxide (DMSO) at a concentration of 20 mM and then subjected to serial dilution, thereby creating an 8 point curve. As for the control group, a 6 point curve created by serial dilution of Talabostat in the same buffer solution was used. Fluorescence intensity was measured using a microplate reader (Flexstation3, Molecular Devices) under the wavelength condition exciting at 380 nm and reading the emission at 460 nm. The inhibitory effect of the test compounds was measured as a decrease (%) in the signal rate as compared to the control group without any inhibitor. Data was fixed to a logistic model with four variables and IC50 value was calculated using GraphPad Prism program. For the FAP FRET assay, recombinant human FAP (R&D systems) was diluted with 50 mM HEPES (pH 7.2) buffer comprising 150 mM of sodium chloride, 0.1 mg/ml of bovine serum albumin (BSA) and 1 mM EDTA to be 10 ng per final reaction. The test compounds were subjected to serial dilution in a buffer under the condition containing up to 0.1% of DMSO. FRET peptides containing human FGF21 sequence ([…]) conjugated with HyLite Fluor 488 and dark quencher QXL 520 (Anaspec) was used as a substrate. By dissolving in DMSO and then diluting in the same buffer, the substrate was added to be 6 μM per final reaction. All reactions of FRET assay was conducted at 37° C.

DPP4 = DPP4 (Homo sapiens, UniProt P27487); assay: DPP4 inhibition, fluorogenic substrate H-Gly-Pro-AMC; format: biochemical; design: purchased R&D Systems; conditions: recombinant human DPP4
Sequence of DPP4 (P27487 whole entry): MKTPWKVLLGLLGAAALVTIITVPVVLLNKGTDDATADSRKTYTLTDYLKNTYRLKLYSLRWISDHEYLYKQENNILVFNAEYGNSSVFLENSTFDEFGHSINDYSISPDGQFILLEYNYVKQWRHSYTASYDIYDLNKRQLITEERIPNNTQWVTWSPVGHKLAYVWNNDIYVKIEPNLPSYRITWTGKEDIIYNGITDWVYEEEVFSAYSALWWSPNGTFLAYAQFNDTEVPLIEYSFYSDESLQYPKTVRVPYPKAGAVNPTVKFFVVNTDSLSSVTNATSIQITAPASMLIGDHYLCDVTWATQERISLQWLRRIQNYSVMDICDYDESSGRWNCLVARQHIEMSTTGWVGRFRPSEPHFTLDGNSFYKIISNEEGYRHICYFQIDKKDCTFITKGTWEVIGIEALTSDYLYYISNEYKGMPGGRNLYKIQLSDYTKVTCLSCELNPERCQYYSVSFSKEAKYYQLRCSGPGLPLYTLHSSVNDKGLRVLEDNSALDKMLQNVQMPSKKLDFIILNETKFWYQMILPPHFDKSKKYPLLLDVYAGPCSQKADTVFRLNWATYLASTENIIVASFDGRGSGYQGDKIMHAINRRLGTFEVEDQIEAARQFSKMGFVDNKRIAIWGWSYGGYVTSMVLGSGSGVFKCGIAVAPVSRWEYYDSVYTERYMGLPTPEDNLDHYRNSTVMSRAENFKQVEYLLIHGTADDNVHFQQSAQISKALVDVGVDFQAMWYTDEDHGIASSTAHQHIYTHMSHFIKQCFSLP

SMILES	IC50 (Recombinant human FAP) [nM]	IC50 (DPP4) [nM]
CN(c1cc(F)cc2ncccc12)[C@H]1CCN(CC(=O)N2C[C@@H](F)C[C@H]2C#N)C1 [Example 157, (2S,4S)-4-fluoro-1-(2-((S)-3-((7-fluoroquinolin-5-yl)(methyl)amino)pyrrolidin-1-yl)acetyl)pyrrolidine-2-carbonitrile]	20.2	2160
COc1ccc2ncccc2c1N[C@@H]1CCN(CC(=O)N2C[C@@H](F)C[C@H]2C#N)C1 [Example 176, (2S,4S)-4-fluoro-1-[2-[(3R)-3-[(6-methoxy-5-quinolyl)amino]pyrrolidin-1-yl]acetyl]pyrrolidine-2-carbonitrile]	22.2	1510
Cc1ccc2nccc(N[C@@H]3CCN(CC(=O)N4C[C@@H](F)C[C@H]4C#N)C3)c2c1 [Example 187, (2S,4S)-4-fluoro-1-[2-[(3R)-3-[(6-methyl-4-quinolyl)amino]pyrrolidin-1-yl]acetyl]pyrrolidine-2-carbonitrile]	23.9	17600
COc1ccc2nccc(N[C@@H]3CCN(CC(=O)N4C[C@@H](F)C[C@H]4C#N)C3)c2c1 [Example 188, (2S,4S)-4-fluoro-1-[2-[(3R)-3-[(6-methoxy-4-quinolyl)amino]pyrrolidin-1-yl]acetyl]pyrrolidine-2-carbonitrile]	21.5	15200
N#C[C@@H]1C[C@H](F)CN1C(=O)CN1CC[C@@H](Nc2ccnc3ccc(F)cc23)C1 [Example 191, (2S,4S)-4-fluoro-1-[2-[(3R)-3-[(6-fluoro-4-quinolyl)amino]pyrrolidin-1-yl]acetyl]pyrrolidine-2-carbonitrile]	19.4	3220
N#C[C@@H]1C[C@H](F)CN1C(=O)CN1CC[C@@H](Nc2ccnc3ccc(Cl)cc23)C1 [Example 192, (2S,4S)-4-fluoro-1-[2-[(3R)-3-[(6-chloro-4-quinolyl)amino]pyrrolidin-1-yl]acetyl]pyrrolidine-2-carbonitrile]	15.6	5560
COc1ccc2c(N[C@@H]3CCN(CC(=O)N4C[C@@H](F)C[C@H]4C#N)C3)ccnc2c1 [Example 193, (2S,4S)-4-fluoro-1-[2-[(3R)-3-[(7-methoxy-4-quinolyl)amino]pyrrolidin-1-yl]acetyl]pyrrolidine-2-carbonitrile]	24.4	9090
N#C[C@@H]1C[C@H](F)CN1C(=O)CN1CC[C@@H](Nc2ccnc3c(F)cccc23)C1 [Example 194, (2S,4S)-4-fluoro-1-[2-[(3R)-3-[(8-fluoro-4-quinolyl)amino]pyrrolidin-1-yl]acetyl]pyrrolidine-2-carbonitrile]	10.9	19600
COc1cccc2c(N[C@@H]3CCN(CC(=O)N4C[C@@H](F)C[C@H]4C#N)C3)ccnc12 [Example 195, (2S,4S)-4-fluoro-1-[2-[(3R)-3-[(8-methoxy-4-quinolyl)amino]pyrrolidin-1-yl]acetyl]pyrrolidine-2-carbonitrile]	21.7	14100
Cc1cnc2ccc(N[C@@H]3CCN(CC(=O)N4CCC[C@H]4C#N)C3)cc2c1 [Example 218, (2S)-1-[2-[(3R)-3-[(3-methyl-6-quinolyl)amino]pyrrolidin-1-yl]acetyl]pyrrolidine-2-carbonitrile]	26.6	17300
COc1ccnc2ccc(N[C@@H]3CCN(CC(=O)N4CCC[C@H]4C#N)C3)cc12 [Example 219, (2S)-1-[2-[(3R)-3-[(4-methoxy-6-quinolyl)amino]pyrrolidin-1-yl]acetyl]pyrrolidine-2-carbonitrile]	16.8	13000
Cc1ccc2nccc(N[C@@H]3CCN(CC(=O)N4CCC[C@H]4C#N)C3)c2c1 [Example 223, (2S)-1-[2-[(3R)-3-[(6-methyl-4-quinolyl)amino]pyrrolidin-1-yl]acetyl]pyrrolidine-2-carbonitrile]	13.1	92500
N#C[C@@H]1C[C@H](F)CN1C(=O)CN1CC[C@H](Nc2cnc3ncccc3c2)C1 [Example 272, (2S,4S)-4-fluoro-1-[2-[(3S)-3-(1,8-naphthyridin-3-ylamino)pyrrolidin-1-yl]acetyl]pyrrolidine-2-carbonitrile]	16.3	2800
N#C[C@@H]1C[C@H](F)CN1C(=O)CN1CC[C@H](Nc2cnc3nc(Cl)ccc3c2)C1 [Example 273, (2S,4S)-4-fluoro-1-[2-[(3S)-3-[(7-chloro-1,8-naphthyridin-3-yl)amino]pyrrolidin-1-yl]acetyl]pyrrolidine-2-carbonitrile]	19	530
CN(C(=O)c1ccc(N[C@H]2CCN(CC(=O)N3CCC[C@H]3C#N)C2)c2cccnc12)c1ccccc1 [Example 289, N-methyl-N-phenyl-5-[[(3S)-1-[2-oxo-2-[(2S)-2-cyanopyrrolidin-1-yl]ethyl]pyrrolidin-3-yl]amino]quinoline-8-carboxamide]	36.3	14200

Now those with a lower IC50 (Recombinant human FAP), led by results:

IC50 (Recombinant human FAP) [nM]	IC50 (DPP4) [nM]	SMILES
7.4	3840	N#C[C@@H]1C[C@H](F)CN1C(=O)CN1CC[C@@H](Nc2ccnc3c(C(F)(F)F)cccc23)C1 [Example 196, (2S,4S)-4-fluoro-1-[2-[(3R)-3-[[8-(trifluoromethyl)-4-quinolyl]amino]pyrrolidin-1-yl]acetyl]pyrrolidine-2-carbonitrile]
8.8	29000	N#C[C@@H]1CCCN1C(=O)CN1CC[C@@H](Nc2ccc3nc(C(F)(F)F)ccc3c2)C1 [Example 217, (2S)-1-[2-[(3R)-3-[[2-(trifluoromethyl)-6-quinolyl]amino]pyrrolidin-1-yl]acetyl]pyrrolidine-2-carbonitrile]
5.7	13200	Cc1cc(N[C@@H]2CCN(CC(=O)N3CCC[C@H]3C#N)C2)cc2cccnc12 [Example 220, (2S)-1-[2-[(3R)-3-[(8-methyl-6-quinolyl)amino]pyrrolidin-1-yl]acetyl]pyrrolidine-2-carbonitrile]
7.5	11100	N#C[C@@H]1CCCN1C(=O)CN1CC[C@@H](Nc2cc(F)c3ncccc3c2)C1 [Example 221, (2S)-1-[2-[(3R)-3-[(8-fluoro-6-quinolyl)amino]pyrrolidin-1-yl]acetyl]pyrrolidine-2-carbonitrile]
2.1	11800	N#C[C@@H]1CCCN1C(=O)CN1CC[C@@H](Nc2cc(Cl)c3ncccc3c2)C1 [Example 222, (2S)-1-[2-[(3R)-3-[(8-chloro-6-quinolyl)amino]pyrrolidin-1-yl]acetyl]pyrrolidine-2-carbonitrile]
10	54200	COc1ccc2nccc(N[C@@H]3CCN(CC(=O)N4CCC[C@H]4C#N)C3)c2c1 [Example 224, (2S)-1-[2-[(3R)-3-[(6-methoxy-4-quinolyl)amino]pyrrolidin-1-yl]acetyl]pyrrolidine-2-carbonitrile]
7.2	34200	N#C[C@@H]1CCCN1C(=O)CN1CC[C@@H](Nc2ccnc3ccc(F)cc23)C1 [Example 225, (2S)-1-[2-[(3R)-3-[(6-fluoro-4-quinolyl)amino]pyrrolidin-1-yl]acetyl]pyrrolidine-2-carbonitrile]
4.8	37900	N#C[C@@H]1CCCN1C(=O)CN1CC[C@@H](Nc2ccnc3ccc(Cl)cc23)C1 [Example 226, (2S)-1-[2-[(3R)-3-[(6-chloro-4-quinolyl)amino]pyrrolidin-1-yl]acetyl]pyrrolidine-2-carbonitrile]
7.2	31700	N#C[C@@H]1CCCN1C(=O)CN1CC[C@@H](Nc2ccnc3c(F)cccc23)C1 [Example 227, (2S)-1-[2-[(3R)-3-[(8-fluoro-4-quinolyl)amino]pyrrolidin-1-yl]acetyl]pyrrolidine-2-carbonitrile]
